Results reported in publication PMC5913645, “Methyl phenlactonoates are efficient strigolactone analogs with simple structure” (Journal of Experimental Botany, 2017).
Entries after “also recorded” stand apart in the source; their conditions may differ. Read-outs that look alike come from different tables or passages of the source.

What was measured:
rice d10 mutant = experiment: Rice micro tillering bioassay, d10 mutant; assay type: in vivo; details: for EC50: Oryza sativa, read-out: EC50 for tillering inhibition of the rice d10 mutant
Method: Rice seeds (WT, d3, d10) were surface-sterilized by washing with 70% ethanol for 1 min and then with 2.5% sodium hypochlorite for 15 min. Seeds were then rinsed thoroughly with sterile MilliQ water and incubated in water for 2 d at 30 °C in the dark. Pre-germinated seeds were transferred to filter papers containing half-strength MS medium in 90 mm Petri dishes and incubated at 30 °C under fluorescent white light (130–180 μmol m^−2 s^−1) for 1 week. Seven-day-old seedlings were transferred to 50 ml falcon tubes (one seedling per tube) containing modified half-strength Hoagland nutrient solution and grown in greenhouse. Plants were treated with MPs at 2.5 μM to 2.5 × 10^–7 μM, using GR24 as positive control. The compounds were applied six times, twice a week. Number of tillers per plant, plant height and fresh biomass were measured at final harvest.
Statistical analyses were carried out using the statistical software package R (version 3.2.2). Dose–response curves and half-maximum effective concentrations (EC50) were calculated to determine optimum amount of MPs. The synthetic strigolactone analog GR24 was used as reference to estimate efficacy of selected compounds. EC50 and estimated response were calculated using the drc package (https://cran.r-project.org/web/packages/drc/) with a four parameter logistic curve (dose–response curve) ([Ritz and Streibig, 2005]).

S. hermonthica seeds = experiment: Striga hermonthica seed germination bioassay; assay type: in vivo; details: for EC50: Striga hermonthica, concentrations 10^–5 to 10^–12 M
Method: Parasitic weed seeds’ (S. hermonthica and P. ramosa) germination activity was studied as described previously ([Jamil et al., 2012]). Six pre-conditioned seed discs were placed in a 90 mm Petri dish containing a filter paper ring wetted with 0.9 ml sterile MilliQ water. Then 50 μl of SL analog solution (10^–5–10^–12 M) was applied on each of the six discs, for each concentration. GR24 solutions with equal concentrations and sterile MilliQ water were included as a positive and negative control, respectively. After application, seeds of S. hermonthica and P. ramosa were incubated in dark at 30 °C for 2 d and at 25 °C for 4 d, respectively. Germination (seeds with radicle emerging through the seed coat) was scored under a binocular microscope, and germination rate (%) was calculated. Statistical analyses were carried out using the statistical software package R (version 3.2.2). Dose–response curves and half-maximum effective concentrations (EC50) were calculated to determine optimum amount of MPs. The synthetic strigolactone analog GR24 was used as reference to estimate efficacy of selected compounds. EC50 and estimated response were calculated using the drc package (https://cran.r-project.org/web/packages/drc/) with a four parameter logistic curve (dose–response curve) ([Ritz and Streibig, 2005]).

OsD14 = biological target: T1, OsD14 (Oryza sativa subsp. japonica, UniProt Q10QA5); experiment: Intrinsic tryptophan fluorescence assay, OsD14; assay type: binding, rice
T1 construct: made in house; host or cells: E. coli BL21 (DE3)
T1 sequence (Q10QA5 1-318): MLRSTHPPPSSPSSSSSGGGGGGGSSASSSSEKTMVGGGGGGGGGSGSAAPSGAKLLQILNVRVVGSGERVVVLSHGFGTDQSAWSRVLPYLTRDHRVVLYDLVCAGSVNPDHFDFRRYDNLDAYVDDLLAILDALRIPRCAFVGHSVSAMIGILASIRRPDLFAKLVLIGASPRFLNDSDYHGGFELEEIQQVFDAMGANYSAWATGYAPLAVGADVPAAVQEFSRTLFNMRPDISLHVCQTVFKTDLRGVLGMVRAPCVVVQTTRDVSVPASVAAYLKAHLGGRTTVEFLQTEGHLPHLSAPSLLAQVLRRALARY
From the text: Striga hermonthica ShHTL7 cDNA was used, GenBank accession KR013127, kindly provided by Tsuyoshi Ota, The University of Tokyo, Japan. Arabidopsis D14 (AtD14) cDNA, GenBank accession AY097402, was synthesized and cloned into pUC57 (GenScript). ShHTL7 and OsD14 cDNAs were amplified by RT-PCR using the primers shown in Supplementary Table S2, digested with BamHI and XhoI, and ligated into BamHI/XhoI-digested pGEX-6P-1 expression vector (GE Healthcare). Integrity of plasmids was confirmed by sequencing (KAUST Bioscience Core Lab). The plasmids were then transformed into E. coli BL21 (DE3) cells. The cells were grown in LB broth containing ampicillin ([…]), incubated at 37 °C until OD600 of 0.6 and induced with 0.1 mM isopropyl-β-D-thiogalactopyranoside at 16 °C for 16 h. Harvested cells were resuspended in lysis buffer: 50 mM Tris–HCl (pH 8.0), 200 mM NaCl, 0.5% Tween-20 and 2 mM dithiothreitol (DTT). After sonication on ice for 10 min, the lysate was centrifuged at 75 000 g for 30 min at 4 °C. Supernatant was allowed to bind to glutathione–sepharose beads (GE Healthcare) for 2 h at 4 °C, washed 3 times with buffer (50 mM Tris-HCl (pH 8.0), 200 mM NaCl, 2 mM DTT), and eluted by cleaving the GST moiety with PreScission™ Protease (GE Healthcare) at 4 °C overnight. Eluted protein was further purified by gel filtration using a HiLoad 16/60 Superdex200 prep grade column (GE Healthcare) on an AKTA prime system (GE Healthcare) in gel filtration buffer (10 mM HEPES pH 7.5, 50 mM KCl and 2 mM DTT). Protein eluted as a sharp single peak and purity was judged by 4–15% SDS-PAGE (Bio-Rad). Purified protein was concentrated using an Amicon 10K filter unit (Merck Millipore) and stored at −80 °C until use. A similar expression and purification protocol was followed for OsD14 protein, except that OsD14 was eluted from glutathione resins using 0.2 mM reduced glutathione (Sigma-Aldrich) without cutting the GST tag.
ShHTL7/D14 tryptophans were excited at 280 nm and emission intensity was measured at 333 nm. ShHTL7/D14 (10 μM) was incubated at various dilutions (0.2, 0.4, 0.8, 1.6, 3.12, 6.25, 12.5, 25, and 50 μM) of GR24 and MPs for 30 min at room temperature before measurement. Each concentration point was measured in triplicate. Emitted fluorescence was monitored using a spectraMaxi3 plate reader (Molecular Devices) in 96-well black plates. Changes in tryptophan fluorescence intensity occur due to conformational changes in protein when it is bound to ligand; differences in fluorescence intensity were recorded and analysed. Data were normalized and dissociation coefficient (Kd) values were calculated by fitting to a binding saturation single-site model with Prism 6 (GraphPad).

[1] = 10 μM protein, 30 min, room temperature, read-out: Kd, OsD14

SMILES	growth, senescence symptoms and biomass of rice seedlings (rice d10 mutant; 2.5 μM)	EC50 (rice d10 mutant) [nM]	EC50 (S. hermonthica seeds) [nM]	Kd (OsD14; [1]) [nM]	number of tillers per plant, d10 mutant (rice d10 mutant; 2.5 μM, hydroponic culture, Mock four tillers per plant)	Kd (OsD14) [nM]	S. hermonthica germination rate (S. hermonthica seeds; 1.0 μM) [%]	Striga germination activity, times weaker than GR24 (S. hermonthica seeds; from EC50 values)	germination activity, order among the chlorophenyl compounds (S. hermonthica seeds; species not given)
COC(=O)/C(=C/OC1C=C(C)C(=O)O1)c1ccccc1 (stereo not shown) [MP3, (E)-methyl 3-(4-methyl-5-oxo-2,5-dihydrofuran-2-yloxy)-2-phenylacrylate]	stunted the growth and caused senescence symptoms; also recorded: growth retardation and senescence	2.98	87	7460 ± 530					
CC1=CC(OC=C2C(=O)OC3c4ccccc4CC23)OC1=O (stereo not shown) [GR24, reference compound]		48.3	0.091		one	4170 ± 320			
COC(=O)/C(=C/OC1C=C(C)C(=O)O1)c1ccc([N+](=O)[O-])cc1 (stereo not shown) [MP1, (E)-methyl 3-(4-methyl-5-oxo-2,5-dihydrofuran-2-yloxy)-2-(4-nitrophenyl)acrylate]		242	1.5	3520 ± 350			75	around 17 times	
COC(=O)/C(=C/OC1C=C(C)C(=O)O1)c1ccc(Cl)cc1 (stereo not shown) [MP7]		25.4		8740 ± 830					highest germination activity with MP7 (Cl in para position) followed by MP9 (ortho position) and MP8 (meta position)
